Measurements as given in patent US8557873B2, “Method for treating septic shock or endotoxemia” (priority 2009, dated 2013).
“Also recorded” adds a separate entry of the source.

How the values were obtained:
[1] = test system: E. coli lipopolysacharide (LPS) induced septic shock/endotoxemia in male balb/c mice; assay: Survival of mice injected with E. coli LPS, treated 30 minutes later with compound i.p., observed three days; assay type: in vivo; conditions: for Survival rate (%) / Survival/total mice: 30 min after LPS 0.4 mg i.p., three days; for Therapeutic effect compared to the other compounds or to recombinant APC: comparison in words; for Concentration with the best therapeutic effect: concentration in 1 ml injected i.p., effect goes down above it; for Best treatment volume: per body weight of the mouse
Protocol: The mice used in this invention were male balb/c having body weights around 20 g, five to six weeks old. Each mouse was intraperitoneally injected with E. coli lipopolysacharide (LPS) 0.4 mg in 1 ml sterile saline. After 30 minutes, each mouse was intraperitoneally injected with one of the following compounds: amylamine, isoamylamine, 2-methylbutamine, n-methylbutamine. The above compounds were dissolved in 1 ml sterile saline to be pH 7.4. The E. coli LPS was serotype 0111:B4 obtained from Sigma (St. Louis, Mo.).
(§1) Each mouse was intraperitoneally injected with E. coli lipopolysaccharide (LPS) 0.4 mg in 1 ml saline, and was then injected with 1 ml amylamine (represented by SS1) of different concentrations (0%, 0.1%, and 0.3%) 30 minutes later. […] The therapeutic effect goes down if the dose above 0.3%. The best treatment volume of amylamine is 0.15 ml/Kg body weight of the mouse.
as §1, with “lipopolysacharide” for “lipopolysaccharide”, “and” for “and was”, “isoamylamine” for “amylamine”, “SS2)” for “SS1)”, “0.1%.” for “0.3%.”, “0.05 ml/kg” for “0.15 ml/Kg”
as §1, with “lipopolysacharide” for “lipopolysaccharide”, “and” for “and was”, “2-methylbutamine” for “amylamine”, “SS3)” for “SS1)”, “0.1%.” for “0.3%.”, “0.05 ml/kg” for “0.15 ml/Kg”
Each mouse was intraperitoneally injected with E. coli lipopolysacharide (LPS) 0.4 mg in 1 ml saline, and then 30 minutes later injected with 1 ml n-methylbutamine (represented by SS9) of different concentrations (0%, 0.1%, 0.3% and 1.0%) 30 minutes later. […] The therapeutic effect goes down if the dose above 1.0%. The best treatment volume of n-methylbutamine is 0.5 ml/kg body weight of the mouse. The dose of SS9 above 1.0% is toxic to mouse.

[2] = test system: patients with severe sepsis; conditions: cited from earlier work

Row | Compound | Survival rate (%) ([1]; 0.1% in 1 ml i.p.) | Survival/total mice ([1]; 0.1% in 1 ml i.p.) | Survival rate (%) ([1]; 0.3% in 1 ml i.p.) | Survival/total mice ([1]; 0.3% in 1 ml i.p.) | Therapeutic effect compared to the other compounds or to recombinant APC [1] | Concentration with the best therapeutic effect [1] [%] | Best treatment volume [1] [mL/kg] | Survival rate (%) ([1]; 1.0% in 1 ml i.p.) | Survival/total mice ([1]; 1.0% in 1 ml i.p.) | Dose toxic to mouse ([1]; concentration in 1 ml i.p.) | Absolute decrease in mortality [2] [%]
1 | CCCCCN [SS1, amylamine] | 18 | 3/17 | 53 | 9/17 | higher therapeutic effects and decreased mortality over recombinant APC | 0.3 | 0.15 | – | – | – | –
2 | CC(C)CCN [SS2, isoamylamine] | 83 | 15/18 | 50 | 9/18 | more significant therapeutic effect; also recorded: higher therapeutic effects and decreased mortality over recombinant APC | 0.1 | 0.05 | – | – | – | –
3 | CCC(C)CN (centres unmarked) [SS3, 2-methylbutamine] | 53 | 16/30 | 33 | 10/30 | higher therapeutic effects and decreased mortality over recombinant APC | 0.1 | 0.05 | – | – | – | –
4 | CCCCNC [SS9, n-methylbutamine] | 39 | 5/13 | 54 | 7/13 | higher therapeutic effects and decreased mortality over recombinant APC | 1.0 | 0.5 | 62 | 8/13 | above 1.0% | –
5 | activated protein C | – | – | – | – | – | – | – | – | – | – | 6.1
